Patent US20100190711A1, “BIG GASTRIN I AS A THERAPEUTIC AGENT” (priority 2007, published 2010)
Where a SMILES comes first, the peptide text is derived from it. [ ]: non-standard residue; d: D form. pGlu = O=C1CC[C@@H](C(=O)O)N1

Test system: drug-resistant Mycobacterium tuberculosis
Conditions: Mycobacterium tuberculosis resistant to PAS, streptomycin and INH; peptide 10 micrograms per ml; seven days

CSCC[C@H](NC(=O)[C@H](Cc1c[nH]c2ccccc12)NC(=O)CNC(=O)[C@H](Cc1ccc(O)cc1)NC(=O)[C@H](C)NC(=O)[C@H](CCC(=O)O)NC(=O)[C@H](CCC(=O)O)NC(=O)[C@H](CCC(=O)O)NC(=O)[C@H](CCC(=O)O)NC(=O)[C@H](CCC(=O)O)NC(=O)[C@H](CC(C)C)NC(=O)[C@H](Cc1c[nH]c2ccccc12)NC(=O)[C@@H]1CCCN1C(=O)CNC(=O)[C@H](CCC(N)=O)NC(=O)[C@H](CCCCN)NC(=O)[C@H](CCCCN)NC(=O)[C@H](CO)NC(=O)[C@@H]1CCCN1C(=O)[C@H](CC(=O)O)NC(=O)[C@H](C)NC(=O)[C@@H](NC(=O)[C@H](CC(C)C)NC(=O)[C@H](Cc1c[nH]cn1)NC(=O)[C@@H]1CCCN1C(=O)[C@@H]1CCCN1C(=O)CNC(=O)[C@H](CCC(N)=O)NC(=O)[C@@H]1CCCN1C(=O)CNC(=O)[C@H](CC(C)C)NC(=O)[C@@H]1CCC(=O)N1)C(C)C)C(=O)N[C@@H](CC(=O)O)C(=O)N[C@@H](Cc1ccccc1)C(N)=O [Big Gastrin I] ([pGlu]LGPQGPPHLVADPSKKQGPWLEEEEEAYGWMDF-NH2)
% inhibition: 100.0%
